# System: Wnt
# Experiment: Wnt reporter assay: SP5 promoter-driven firefly luciferase in SW480 cells
# Format: cell-based
# Conditions: Homo sapiens; SW480 colon cancer cells with SP5 promoter (TCF/LEF) luciferase reporter; 24-40 h after compound addition; normalized to DMSO; read-out: Wnt inhibition, IC50
# Text: Another screening assay for Wnt activity is described as follows. Reporter cell lines can be generated by stably transducing cells of cancer cell lines (e.g., colon cancer) with a lentiviral construct that include a wnt-responsive promoter driving expression of the firefly luciferase gene.
# Lentiviral constructs can be made in which the SP5 promoter, a promoter having eight TCF/LEF binding sites derived from the SP5 promoter, is linked upstream of the firefly luciferase gene. The lentiviral constructs can also include a hygromycin resistance gene as a selectable marker. The SP5 promoter construct can be used to transduce SW480 cells, a colon cancer cell line having a mutated APC gene that generates a truncated APC protein, leading to de-regulated accumulation of β-catenin.
# Cultured SW480 cells bearing a reporter construct can be distributed at approximately 10,000 cells per well into 96 well or 384 well plates. Compounds from a small molecule compound library can then be added to the wells in half-log dilutions using a ten micromolar top concentration. A series of control wells for each cell type receive only buffer and compound solvent. Twenty-four to forty hours after the addition of compound, reporter activity for luciferase can be assayed, for example, by addition of the BrightGlo luminescence reagent (Promega) and the Victor3 plate reader (Perkin Elmer). Readings can be normalized to DMSO only treated cells, and normalized activities can then be used in the IC50 calculations.
row,Compound,IC50 [nM]
1,"CC(C)C(=O)Nc1cncc(-c2cnc3[nH]nc(-c4nc5ccncc5[nH]4)c3c2)c1 [Compound 52, N-(5-(3-(3H-imidazo[4,5-c]pyridin-2-yl)-1H-pyrazolo[3,4-b]pyridin-5-yl)pyridin-3-yl)isobutyramide]",> 10000
2,"CCC(=O)Nc1cncc(-c2cnc3[nH]nc(-c4nc5c(-c6ccc(F)cc6)cncc5[nH]4)c3c2)c1 [Compound 50, N-(5-(3-(7-(4-fluorophenyl)-3H-imidazo[4,5-c]pyridin-2-yl)-1H-pyrazolo[3,4-b]pyridin-5-yl)pyridin-3-yl)propionamide]",< 1.5
3,"CCC(=O)Nc1cncc(-c2cnc3[nH]nc(-c4nc5c(-c6cccc(F)c6)cncc5[nH]4)c3c2)c1 [Compound 49, N-(5-(3-(7-(3-fluorophenyl)-3H-imidazo[4,5-c]pyridin-2-yl)-1H-pyrazolo[3,4-b]pyridin-5-yl)pyridin-3-yl)propionamide]",< 5
4,"Cc1ccncc1-c1cnc2[nH]nc(-c3nc4ccncc4[nH]3)c2c1 [Compound 29, 3-(3H-imidazo[4,5-c]pyridin-2-yl)-5-(4-methylpyridin-3-yl)-1H-pyrazolo[3,4-b]pyridine]",3000 to 5000
5,"O=C(Nc1cncc(-c2cnc3[nH]nc(-c4nc5c(-c6cccc(F)c6)cncc5[nH]4)c3c2)c1)N1CCOCC1 [Compound 62, N-(5-(3-(7-(3-fluorophenyl)-3H-imidazo[4,5-c]pyridin-2-yl)-1H-pyrazolo[3,4-b]pyridin-5-yl)pyridin-3-yl)morpholine-4-carboxamide]",< 20
6,"CCC(=O)Nc1cncc(-c2cnc3[nH]nc(-c4nc5c(-c6cccnc6)cncc5[nH]4)c3c2)c1 [Compound 47, N-(5-(3-(7-(pyridin-3-yl)-3H-imidazo[4,5-c]pyridin-2-yl)-1H-pyrazolo[3,4-b]pyridin-5-yl)pyridin-3-yl)propionamide]",7000 to 10000
7,"CN(C)C(=O)Nc1cncc(-c2cnc3[nH]nc(-c4nc5c(-c6cccc(F)c6)cncc5[nH]4)c3c2)c1 [Compound 66, 3-(5-(3-(7-(3-fluorophenyl)-3H-imidazo[4,5-c]pyridin-2-yl)-1H-pyrazolo[3,4-b]pyridin-5-yl)pyridin-3-yl)-1,1-dimethylurea]",< 15
8,"CC(C)CC(=O)Nc1cncc(-c2cnc3[nH]nc(-c4nc5ccncc5[nH]4)c3c2)c1 [Compound 53, N-(5-(3-(3H-imidazo[4,5-c]pyridin-2-yl)-1H-pyrazolo[3,4-b]pyridin-5-yl)pyridin-3-yl)-3-methylbutanamide]",> 10000
9,c1cncc(-c2cnc3[nH]nc(-c4nc5ccncc5[nH]4)c3c2)c1 [Compound 46],1000 to 2000
10,"CCC(=O)Nc1cncc(-c2cnc3[nH]nc(-c4nc5c(N6CCOCC6)cncc5[nH]4)c3c2)c1 [Compound 55, N-(5-(3-(7-morpholino-3H-imidazo[4,5-c]pyridin-2-yl)-1H-pyrazolo[3,4-b]pyridin-5-yl)pyridin-3-yl)propionamide]",> 10000
11,"CCC(=O)Nc1cncc(-c2cnc3[nH]nc(-c4nc5c(-c6ccccc6F)cncc5[nH]4)c3c2)c1 [Compound 51, N-(5-(3-(7-(2-fluorophenyl)-3H-imidazo[4,5-c]pyridin-2-yl)-1H-pyrazolo[3,4-b]pyridin-5-yl)pyridin-3-yl)propionamide]",< 45
12,"CC(C)CC(=O)Nc1cncc(-c2cnc3[nH]nc(-c4nc5c(N6CCN(C)CC6)cncc5[nH]4)c3c2)c1 [Compound 57, 3-methyl-N-(5-(3-(7-(4-methylpiperazin-1-yl)-3H-imidazo[4,5-c]pyridin-2-yl)-1H-pyrazolo[3,4-b]pyridin-5-yl)pyridin-3-yl)butanamide]",1000 to 4000
13,c1cncc(-c2cnc3[nH]nc(-c4nc5c(-c6cccnc6)cncc5[nH]4)c3c2)c1 [Compound 45],200 to 1200
14,"CC(C)C(=O)Nc1cncc(-c2cnc3[nH]nc(-c4nc5c(N6CCN(C)CC6)cncc5[nH]4)c3c2)c1 [Compound 59, N-(5-(3-(7-(4-methylpiperazin-1-yl)-3H-imidazo[4,5-c]pyridin-2-yl)-1H-pyrazolo[3,4-b]pyridin-5-yl)pyridin-3-yl)isobutyramide]",2000 to 3000

# Reference: patent US9855272B2, “1H-pyrazolo[3,4-B]pyridines and therapeutic uses thereof” (Samumed, LLC, priority 2009, dated 2018)
